Measurements as given in article PMC7922564, “Molecular Insights into an Antibiotic Enhancer Action of New Morpholine-Containing 5-Arylideneimidazolones in the Fight against MDR Bacteria” (International Journal of Molecular Sciences, 2021).
Several values for one entry are separate records, joined by “and”; a condition that tells them apart may be missing. Identical values can stand only once. Like-named read-outs stand apart in the source and are kept apart here.

Tests used:
[1] = test system: S. aureus ATCC 25923; assay: MIC determination (microdilution), S. aureus ATCC 25923; assay type: cell-based, Staphylococcus aureus; details: for MIC: Staphylococcus aureus, ATCC25923, unstarred values of column MIC value/no precipitation, read-out: MIC value
Method: (§1) Determination of MIC values, i.e., intrinsic antibacterial activity, of products and antibiotics (oxacillin, ampicillin, vancomycin, ciprofloxacin, and erythromycin) in the presence and absence of compounds tested was conducted by the use of a standard 2-fold microdilution method in cation-adjusted Mueller Hinton broth following the Clinical and Laboratory Standards Institute (CLSI) guidelines. The MIC values were detected using an Infinite M200 pro Tecan microplate reader (Tecan® France, SA-Lyon, France). MIC determinations were conducted in 96-well microtiter plates and repeated 3–4 times.
(§2) Initially, MICs of a series of imidazolone derivatives were assessed against susceptible (reference) and MDR strains of staphylococci. Next, MIC values of the aforementioned antibiotics were determined in the absence and presence of imidazolone derivatives to assess the chemosensitizing effect of these compounds. […] 5-arylideneimidazolones and 5-arylidenethiazolones, which precipitated after addition to bacterial suspension in MH II medium, were tested at the highest concentrations at which precipitation was not observed. […] Antibacterial activity of compounds and antibiotics ampicillin, vancomycin, ciprofloxacin, and erythromycin was recorded as the lowest concentration of molecules able to inhibit bacterial growth after 18 h incubation at 37 °C. The incubation of bacterial strains exposed to oxacillin paired with compounds tested was conducted at 35 °C and extended to 24 h due to frequent occurrence of heterogeneity among MRSA strains. The results are presented as activity gain (A) parameter which was calculated as ratio of MIC of a certain antibiotic (MICAnt) to its MICAnt+Comp, observed in combination with a tested compound (7, 12–16, 19, or 20; Equation (1)). (1) A=(MICAnt/MICAnt+Comp)

[2] = test system: MRSA 19449; assay: MIC determination (microdilution), MRSA 19449; assay type: cell-based, Staphylococcus aureus; details: for MIC: Staphylococcus aureus, MRSA, no precipitation
Method: as §1, §2

[3] = test system: K. aerogenes Ea-294, Ea-308 (devoid of AcrAB); assay: MIC of compounds, K. aerogenes Ea-294, Ea-308; assay type: cell-based; details: Klebsiella aerogenes, read-out: Minimal Inhibitory Concentration (MIC)
Description: (§3) A subset of compounds, namely 7, 12–16, 19, 20, was also examined for the potential to increase the effectiveness of the antibiotics chloramphenicol, erythromycin, doxycycline, and the fluoroquinolone antibiotic norfloxacin, which all are substrates for AcrAB-TolC in K. aerogenes. In addition to strain Ea-289, the adjuvant-like effect of the compounds was investigated in strain CM-64, which also overexpresses the AcrAB-TolC efflux pump, although it has no changes in porin content, and in the Ea-289 derivatives, i.e., Ea-294 and Ea-308, which are devoid of AcrAB (Table S17, Supplementary).
as §1
(§4) MIC values of 5-arylideneimidazolone derivatives were determined following CLSI recommendations as in the methods described for S. aureus (Section 3.3.1).

[4] = test system: K. aerogenes Ea-289 (overexpression of AcrAB-TolC); assay: MIC of compounds, K. aerogenes Ea-289; assay type: cell-based; details: Klebsiella aerogenes
Method: At first, MIC values of compounds were determined (Table S15, Supplementary). Next, their abilities to reduce MICs of the AcrAB-TolC substrates doxycycline (a tetracycline-class antibiotic) and erythromycin were studied (Table S16, Supplementary). […]
as §1, §4

[5] = test system: K. aerogenes CM-64 (overexpression of AcrAB-TolC); assay: MIC of compounds, K. aerogenes CM-64; assay type: cell-based; details: Klebsiella aerogenes, read-out: Minimal Inhibitory Concentration (MIC)
Description: as §3, §1, §4

[6] = test system: K. aerogenes Ea-294, Ea-308; assay: MIC reduction assay (antibiotic adjuvant), K. aerogenes Ea-294, Ea-308; assay type: cell-based, Klebsiella aerogenes; details: doxycycline, chloramphenicol, norfloxacin, erythromycin;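 note: compound at no more than one quarter of its own MIC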
Description: as §3, §2, §4

[7] = test system: K. aerogenes Ea-289; assay: MIC reduction assay (antibiotic adjuvant), K. aerogenes Ea-289; assay type: cell-based, Klebsiella aerogenes;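 note: compound at no more than one quarter of its own MIC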
Method: At first, MIC values of compounds were determined (Table S15, Supplementary). Next, their abilities to reduce MICs of the AcrAB-TolC substrates doxycycline (a tetracycline-class antibiotic) and erythromycin were studied (Table S16, Supplementary).
as §3, §2, §4

[8] = test system: K. aerogenes CM-64; assay: MIC reduction assay (antibiotic adjuvant), K. aerogenes CM-64; assay type: cell-based, Klebsiella aerogenes; details: doxycycline, chloramphenicol, norfloxacin, erythromycin;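 note: compound at no more than one quarter of its own MIC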
Description: as §3, §2, §4

[9] = test system: AcrAB-TolC efflux pump in K. aerogenes strain Ea-289; assay: Real-time efflux (RTE) assay, 1,2'-dNA extrusion; assay type: cell-based, Klebsiella aerogenes; details: compound 100 µM; IE=100% total inhibition of efflux
Method: Compounds 7, 12–16, 19, and 20 were also assessed for their EPI property in K. aerogenes strain Ea-289 with the use of a real-time efflux (RTE) assay. Results for compounds 16 and 20 were previously described. The experiment is based on the measurement of the extrusion of a fluorescent dye from bacterial cells overproducing efflux pump transporters in the presence and absence of compounds tested. The dye used in this assay, 1,2’ –dinaphthylamine (1,2’-dNA), is a substrate for the AcrAB-TolC efflux pump, and is strongly fluorescent upon incorporation into a phospholipid bilayer, although it is almost non-fluorescent in an aqueous solution [37, 38].
A likewise strong blocking efficacy (IE = 83 %) was also noticed for compound 12, while the lowest inhibitory effect was found for compound 13 (IE = 23 %).
The inhibitory activity of 5-arylideneimidazolone derivatives towards AcrAB-TolC mediated efflux of 1,2’-dNA was detected in K. aerogenes strain Ea-289 by using a real-time fluorometric method. In a first step, bacterial cells were loaded with the environment-sensitive fluorescent membrane probe, 1,2’-dNA, in the presence of the EPI carbonyl cyanide m-chlorophenylhydrazone (CCCP) which inactivated the pump by dissipating membrane potential. Next, compounds tested were added at the concentration of 100 µM and the efflux was energizing by automated injection of glucose at a dose of 50 µM. The fluorescence intensity was measured in a microplate reader (Tecan) with an excitation wavelength of λex = 370 nm and an emission wavelength of λem = 420 nm.

[10] = Water solubility (UV spectroscopy); assay type: physicochemical
Description: Six representatives of 5-arylideneimidazolones (9–12, 15, 19) were chosen for the determination of water solubility. UV spectroscopy was used for the estimation of concentrations of compounds according to the method described earlier. Acquired UV absorbance, calculated means, and standard deviations for tested compounds are presented in Supplementary Table S18. Solubility results, presented in Table 6, point out that compounds from the same group (A or B, Table 1 and Table 2) with the two-ring aromatic moiety are more soluble than compounds with the fluorene motive (Group A: 9, 10, 11 vs. 12; Group B: 15 vs. 19). […] The most soluble of tested compounds was compound 15, which could be dissolved in water at a concentration of up to 205.502 mM/L.
Water solubility was obtained using UV spectroscopy method. Absorbance of tested solutions of compounds 9-12, 15, and 19, respectively in suitable dilution, in three repetitions as well as calculated arithmetic means, solubility and standard deviations are presented in Table S18. the solubility results […]
Table S18. Results of absorbance used for estimation of water solubility of tested compounds (9-12, 15, 19).
Abbreviations: A1, A2,and A3, UV absorbance in first, second, and third repetition; Amean, arithmetic mean of absorbance from three repetitions; s, standard deviation for absorbance; S, water solubility; SD – standard deviation for solubility. […]

[11] = Stability in acidic and basic conditions (TLC); assay type: physicochemical; details: for Number of TLC spots: 1 = stable
Method: Compounds 9–12, 15, and 19 were also tested for their stability in acidic and basic conditions. This assay was carried out for 48 h and samples were taken at six-time intervals (10 min, 1 h, 2 h, 3 h, 24 h, 48 h). Stability of the compounds was determined using the TLC method. […] In basic conditions, only compounds 10 and 15 were stable for 24 h. […] Results with details, including time of degradation of products obtained, are presented in the Supplementary (Tables S19 and S20). […]
VI. Stability in different pH conditions
Stability of chosen compounds (9-12, 15, and 19) were determined using the TLC method. Assays were performed in acidic and basic conditions and were carried out for 48 h. Samples were taken at six-time intervals (10 min., 1 h, 2 h, 3 h, 24 h, 48 h). […]
of spots observed on TLC, where 1 indicate that compound is stable (only TLC spot for proper compound was observed). Higher values point out how many products of degradation was observed, which can be calculating by subtracting one from number of spots.
Table S19. Results of chosen compounds (9-12, 15, 19) stability in acidic conditions.
Compound Number of TLC spots in defined time
Table S20. Results of chosen compounds (9-12, 15, 19) stability in basic conditions.

[12] = read-out: MIC value/no precipitation

Structure (SMILES): O=C1NC(N2CCC(N3CCOCC3)CC2)=N/C1=C\c1c2ccccc2cc2ccccc12 [Compound 13]
- MIC [1]: 31.2 to 250 µM
- MIC [2]: 31.2 to 250 µM
- MIC [3]: 2000 µM
- MIC [4, 12]: > 250 µM
- MIC ([4]; read-out: Minimal Inhibitory Concentration (MIC)): > 2000 µM
- MIC [5]: > 2000 µM
- A (activity gain) [6]: 1
- A (activity gain) ([7]; doxycycline): 1
- A (activity gain) ([7]; doxycycline, chloramphenicol, norfloxacin, erythromycin): 1
- A (activity gain) ([7]; erythromycin): 1
- A (activity gain) [8]: 1
- Inhibition efficiency (IE) towards extrusion of 1,2'-dNA [9]: 23%

Structure (SMILES): NC1=N/C(=C\c2cc3ccccc3c3ccccc23)C(=O)N1CCCN1CCOCC1 [Compound 21]
- MIC [1]: 31.2 to 250 µM
- MIC [2]: 31.2 to 250 µM
- MIC [4, 12]: > 250 µM
- A (activity gain) ([7]; doxycycline): 1
- A (activity gain) ([7]; erythromycin): 1

Structure (SMILES): Cc1onc(-c2ccccc2)c1C(=O)N[C@@H]1C(=O)N2[C@@H]1SC(C)(C)[C@@H]2C(=O)O [oxacillin, reference compound]
- MIC of the antibiotic alone ([1]; oxacillin alone): 0.25 µg/mL
- MIC of the antibiotic alone ([2]; oxacillin alone): 256 µg/mL

Structure (SMILES): O=C1NC(N2CCC(N3CCOCC3)CC2)=N/C1=C\c1ccc(Oc2ccccc2)cc1 [Compound 10]
- MIC [2]: 31.2 to 250 µM
- MIC [4, 12]: > 250 µM
- A (activity gain) ([7]; doxycycline): 1
- A (activity gain) ([7]; erythromycin): 1
- solubility [10]: 2680 µg/mL and 5740 µM
- Number of TLC spots ([11]; acidic conditions, 10 min): 1
- Number of TLC spots ([11]; acidic conditions, 1 h): 1
- Number of TLC spots ([11]; acidic conditions, 2 h): 1
- Number of TLC spots ([11]; acidic conditions, 3 h): 1
- Number of TLC spots ([11]; acidic conditions, 24 h): 1
- Number of TLC spots ([11]; acidic conditions, 48 h): 2
- time stable ([11]; basic conditions): 24 h
- Number of TLC spots ([11]; basic conditions, 10 min): 1
- Number of TLC spots ([11]; basic conditions, 1 h): 1
- Number of TLC spots ([11]; basic conditions, 2 h): 1
- Number of TLC spots ([11]; basic conditions, 3 h): 1
- Number of TLC spots ([11]; basic conditions, 24 h): 1
- Number of TLC spots ([11]; basic conditions, 48 h): 2
